Source: patent US11479616B2, “Method for preparing okra polygalacturonic acid having uric acid-lowering effect” (Institute of Biological and Medical Engineering, Guangdong …, priority 2020, dated 2022)

Experiments:
[1] = test system: mice with high uric acid levels; experiment: Evaluation of uric acid-lowering effect in high uric acid mouse models (blood uric acid, blood creatinine, serum urea nitrogen); format: in vivo, C57BL/6 mice; settings: 100 mg/kg of body weight, mean ± SD, n = 6
Experimental: (§1) C57BL/6 mice (16.7-20.4 g, 6-7 weeks old) were provided by the Guangdong Medical Laboratory Animal Center, and quarantined for 4 days before the trial. During the trial, the mice were kept in a house with stable conditions with a 12 h:12 h light-dark cycle and given ad libitum access to food and water.
The mice were divided according to their weights into a negative control group (normal mice), a model control group (mice with high uric acid levels), a positive control group (mice with high uric acid levels, administrated with allopurinol tablets), a low-dosage group (mice with high uric acid levels, […] acid), and a high-dosage group (mice with high uric acid levels, […]), six mice in each group. The mice of each group were treated with a corresponding solution through intragastric administration with a dosage of 20 mL per kg of body weight, wherein the mice of the positive control group were treated with a 5 mg/mL allopurinol solution, the mice of the negative control group and the model control group were treated with purified water, one administration per day. […] The mice were treated for 30 successive days.
Method for preparing OP1 samples: 45 mg of the okra polygalacturonic acid was weighed out and mixed well with a certain volume of purified water. The mixture was further added with purified water to a final volume of 4.5 mL to give a 10 mg/mL high-dosage solution, which shall be shaken well before used. 0.9 mL of the high-dosage solution was added with purified water to a final volume of 3.6 mL and mixed well to give a 2.5 mg/mL low-dosage solution, which shall be shaken well before used. […]
(§2) 3 hours after the last administration, the mice were anaesthetized using isoflurane, and blood was collected from each mouse by removing eyeballs. […] Blood uric acid levels, blood creatinine levels, and serum urea nitrogen levels were measured by an automatic biochemical analyzer, and XOD activities were determined using an ELISA kit.

[2] = test system: XOD; experiment: Serum XOD activity of high uric acid mouse models, determined using an ELISA kit; format: in vivo, C57BL/6 mice; settings: high uric acid mice, 100 mg/kg of body weight, intragastric, 30 days, mean ± SD, n = 6
Experimental: as §1
The mice were divided according to their weights into a negative control group (normal mice), a model control group (mice with high uric acid levels), a positive control group (mice with high uric acid levels, administrated with allopurinol tablets), a low-dosage group (mice with high uric acid levels, administrated with 50 mg/kg of the okra polygalacturonic acid), and a high-dosage group (mice with high uric acid levels, administrated with 200 mg/kg of the okra polygalacturonic acid), six mice in each group. […]
as §2

SMILES: Oc1ncnc2[nH]ncc12 [Positive control, allopurinol]
- blood creatinine ([1]; intragastric, 30 days): 30.2 ± 5.7 µmol/L
- serum urea nitrogen ([1]; intragastric, 30 days): 23.3 ± 4.1 mmol/L
- Blood uric acid ([1]; one intragastric administration per day for 30 days, serum 3 hours after last administration): 134.8 ± 19.9 µmol/L
- XOD activity [2]: 19.8 ± 2.2 U/L
